# Earlier results in patent US5070187A, “Pharmacologically effective antagonists of arginine-vasopressin” (priority 1989, dated 1991).
# Conditions: in vivo
substance,measurement,value
[8-arginine]-vasopressin,urinary clearance relative to that occurring elsewhere in the body,less than 5%
